Molecules are shown by their SMILES.

Consider 1 compound from patent publication US6020342A, “Fused imidazo[1,2-A]pyridines” (Shinnippon Pharmaceutical, Inc., priority 1995, dated 2000).

The target of one data set is T1, H^+ /K^+ -ATPase (Sus scrofa, UniProt P19156).
T1 construct: a microsome fraction prepared from porcine gastric mucosa was used as a standard enzyme; from tissue; host or cells: porcine gastric mucosa, microsome fraction
The data set is described as follows: Inhibitory Action on H^+ /K^+ -ATPase Activity. The conditions noted are these: microsome fraction from porcine gastric mucosa, pH7.4, 37° C., 30 min preincubation, 15 min reaction. The format is biochemical.

For data set [1], the system named is gastric acid secretion. Kind of data set: Inhibition of Gastric Acid Secretion Observed Under Acute Fistula Method. The format is in vivo, male Wistar rats. The conditions noted are these: Rattus norvegicus; 30 mg/kg intraduodenally, rats, histamine 10 mg/kg s.c., cumulative 2 h. The method, then: Inhibition of Gastric Acid Secretion Observed Under Acute Fistula Method
Male Wistar rats (6-8 weeks) fasted for 24 hours (water ad libitum) were used. The rats were anesthetized by intraperitoneal administration of 1.25 g/kg of urethane. The abdomen was incised, and acute gastric fistula was connected to the stomach. Two ml of saline was injected into the stomach, and recovered every 20 minutes. The gastric acid secretion was determined by titrating of gastric juice by 150 mM sodium hydroxide up to pH7.0 using an autotitrator. Test compounds (30 mg/kg) suspended in a 0.5% aqueous sodium carboxymethylcellulose (CMC-Na) solution were administered intraduodenally. After 1 hour, gastric acid secretion was stimulated by subcutaneous administration of histamine dihydrochloride dissolved in saline (10 mg/kg). Inhibition (%) of gastric acid secretion was determined by calculating cumulative amount of the acid secretion during two hours after histamine stimulation and then comparing the cumulative amount with that in the control group. In the control group, only 0.5% aqueous CMC-Na solution was administered intraduodenally.

The test system of data set [2] is gastric acid secretion. The data set is described as follows: Inhibition of Gastric Acid Secretion Observed Under Stomach Perfusion Method. The conditions noted are these: Rattus norvegicus, ip, 1 h; rats, histamine i.v. 8 mg/kg/hr, inhibition one hour after administration (1-10 mg/kg, "intrapenetorially"); read-out: ID50 (dose showing 50% inhibition of acid secretion). The data set is classed as in vivo, male Sprague Dawrey rats. As for the experimental part: Inhibition of Gastric Acid Secretion Observed Under Stomach Perfusion Method
Male Sprague Dawrey rats (6-7weeks) fasted for 24 hours were used (water ad libitum). The rats were anesthetized by intraperitoneal administration of 1.25 g/kg of urethane. The abdomen was incised, and gastral cavity was perfused with saline during experiment. The perfusate was titrated by 10 mM sodium hydroxide up to pH5.5 using an autotitrator in accordance with Stat-method. Gastric acid secretion was stimulated by intravenous administration of histamine dihydrochloride (8 mg/kg/hr). Two hours after histamine stimulation, a test compound 1-10 mg/kg) was administered intrapenetorially. The test compound was mixed with small amount of polysorbate-80, and the mixture was suspended in saline. The test compound was evaluated using ID50 (dose showing 50% inhibition of acid secretion) which was calculated based on inhibition of the acid secretion observed one hour after administration of the compound.

Data set [3] relates to ethanol-induced gastric lesion. The data set is described as follows: Inhibition of Ethanol-induced Gastric Lesion (Protection of gastric mucosa). The conditions noted are these: Rattus norvegicus, po, 1 h; 30 mg/kg orally, rats, ethanol 0.5 ml/100 g. The format is in vivo, male Wister rats. The method, then: Inhibition of Ethanol-induced Gastric Lesion (Protection of gastric mucosa)
Male Wister rats (6-7weeks, 5 rats per group) fasted for 24 hours were used (water ad libitum). Test compound (30 mg/kg) suspended in 0.5% aqueous CMC-Na solution was orally administered. In the control group, only 0.5% aqueous CMC-Na solution was administered. Thirty minutes after administration, 0.5 ml/100 g body weight of ethanol was orally administered to cause gastric lesion. After one hour, the rat was killed by excessive amount of ether, and the stomach was removed and fixed with 2% formalin. After fixation, the stomach was dissected along the large curvature. The size of each of mucosal lesions was measured under dissecting microscope, and the total size of the lesions per rat was determined and used as ulcer index (mm). Inhibition of gastric lesion was determined by comparing the ulcer index in the control group and test group.

On the set-up of data set [4]: species or system male ICR mice. The conditions noted are these: mouse, in vivo, po, 10080 min. The method, then:
Male ICR mice (6 weeks, 3 mice per group) fasted for 16 hours were used ad libitum). A test compound suspended in 5% aqueous gum arabic solution was orally administered. After administration, mortality of the animals observed during 7 days and approximate lethal dose was determined.

T1 sequence (P19156 2-1034 limits assumed): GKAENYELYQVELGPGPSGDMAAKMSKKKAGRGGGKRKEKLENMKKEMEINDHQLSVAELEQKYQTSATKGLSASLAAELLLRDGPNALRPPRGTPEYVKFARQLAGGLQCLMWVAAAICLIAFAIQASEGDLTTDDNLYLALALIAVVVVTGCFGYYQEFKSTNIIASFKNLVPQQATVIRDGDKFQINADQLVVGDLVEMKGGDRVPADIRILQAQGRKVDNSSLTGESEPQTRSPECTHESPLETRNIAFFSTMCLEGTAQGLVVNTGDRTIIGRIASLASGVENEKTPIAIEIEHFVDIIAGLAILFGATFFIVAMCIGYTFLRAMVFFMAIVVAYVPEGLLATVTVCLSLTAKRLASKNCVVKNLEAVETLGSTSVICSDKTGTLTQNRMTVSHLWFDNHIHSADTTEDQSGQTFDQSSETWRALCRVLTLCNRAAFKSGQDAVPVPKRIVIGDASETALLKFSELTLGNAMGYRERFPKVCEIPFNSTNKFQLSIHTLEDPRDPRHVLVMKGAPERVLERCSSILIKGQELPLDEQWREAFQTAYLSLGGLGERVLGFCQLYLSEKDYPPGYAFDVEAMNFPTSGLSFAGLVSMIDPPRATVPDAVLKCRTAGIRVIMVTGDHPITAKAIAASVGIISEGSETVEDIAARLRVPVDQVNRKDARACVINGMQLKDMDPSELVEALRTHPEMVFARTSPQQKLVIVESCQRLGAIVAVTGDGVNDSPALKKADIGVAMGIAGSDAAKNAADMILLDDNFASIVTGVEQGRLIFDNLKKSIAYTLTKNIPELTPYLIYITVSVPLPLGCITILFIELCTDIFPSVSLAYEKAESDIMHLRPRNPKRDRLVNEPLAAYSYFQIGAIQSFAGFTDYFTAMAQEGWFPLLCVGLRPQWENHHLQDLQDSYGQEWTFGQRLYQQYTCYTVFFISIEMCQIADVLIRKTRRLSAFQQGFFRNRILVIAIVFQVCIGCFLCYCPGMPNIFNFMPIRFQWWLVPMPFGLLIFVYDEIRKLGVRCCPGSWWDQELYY
T1 sequence (P18434 whole entry partner): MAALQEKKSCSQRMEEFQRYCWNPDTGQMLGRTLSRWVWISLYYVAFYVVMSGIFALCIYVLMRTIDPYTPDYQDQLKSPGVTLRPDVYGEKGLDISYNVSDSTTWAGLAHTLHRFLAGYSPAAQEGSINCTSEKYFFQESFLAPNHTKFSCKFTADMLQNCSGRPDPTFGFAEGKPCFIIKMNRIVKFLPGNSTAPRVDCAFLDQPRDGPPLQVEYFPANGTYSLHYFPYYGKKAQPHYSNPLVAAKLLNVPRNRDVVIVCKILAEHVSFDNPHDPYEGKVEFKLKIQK

`CCNc1c(-c2ccccc2C)nc2c3ccccc3ccn12` [Compound 158, 3-Ethylamino-2-(2-methylphenyl)imidazo[2,1-a]isoquinoline] yielded an IC50 against H^+ /K^+ -ATPase of 13 µM. In addition, the inhibition in vivo at 30 mg/kg came to 83.6% in the data set on gastric acid secretion [1] and 92.4% in data set [3]. In the data set on gastric acid secretion [2], the ED50 came to 8.6 mg/kg. In addition, the Approximate lethal dose in data set [4] is on record as > 2,000 mg/kg.

Usually IC50 stands for the concentration that gives 50% inhibition. Broadly, the inhibition in vivo is the relative decrease from the control value, in per cent.
